Patent US11926583B2, “Stabilized 1, 25-dihydroxyvitamin D2 and method of making same” (CYTOCHROMA INC., priority 2008, dated 2024)

Test: Accelerated stability testing at 60° C., purity by HPLC
Format: physicochemical
Settings: for Purity (absolute %) / Purity (% of initial amount): At 60° C.
Procedure: The HPLC analysis can suitably follow the parameters in Table 2 below.
Samples of stabilized 1,25-dihydroxyvitamin D2 according to Example 1 and commercially-obtained 1,25-dihydroxyvitamin D2 (SAFC, Madison, Wis. USA) made by crystallization from methyl formate were placed in a 60° C. oven in several 2 ml amber vials with Teflon-lined caps. Samples were taken out at different time points and purity was checked by HPLC according to Example 1. The results are presented in Tables 3 and 4 below and in FIGS. 1 and 2. […] The stabilized material prepared according to the Example 1 will clearly have advantage when any heat is required during formulation.

Row | Structure (SMILES) | Stability compared to commercially available material containing residual methyl formate (60° C., up to 72 hours) | Purity (absolute %) (0 h) [%] | Purity (% of initial amount) (4 h) [%] | Purity (absolute %) (4 h) [%] | Purity (% of initial amount) (8 h) [%] | Purity (absolute %) (8 h) [%] | Purity (% of initial amount) (16 h) [%] | Purity (absolute %) (16 h) [%] | Purity (% of initial amount) (24 h) [%] | Purity (absolute %) (24 h) [%] | Purity (% of initial amount) (48 h) [%] | Purity (absolute %) (48 h) [%] | Purity (% of initial amount) (72 h) [%] | Purity (absolute %) (72 h) [%] | Purity (% of initial amount) (Initial %) [%]
1 | C=C1/C(=C\C=C2/CCC[C@]3(C)[C@@H]([C@H](C)/C=C/[C@H](C)C(C)(C)O)CC[C@@H]23)C[C@@H](O)C[C@@H]1O [Example 1, 1,25-dihydroxyvitamin D2] | surprisingly more stable | 99.40 | 99.98 | 99.38 | 100 | 99.42 | 99.93 | 99.33 | 100 | 99.42 | 99.90 | 99.31 | 99.50 | 98.89 | –
2 | C=C1/C(=C\C=C2/CCC[C@]3(C)[C@@H]([C@H](C)/C=C/[C@H](C)C(C)(C)O)CC[C@@H]23)C[C@@H](O)C[C@@H]1O [Commercial, 1,25-dihydroxyvitamin D2] | – | 96.80 | 98.33 | 95.18 | 98.12 | 94.98 | 97.82 | 94.69 | 97.09 | 93.98 | 96.97 | 93.86 | 96.92 | 93.82 | 100
